Assay results taken from US11814396B2, “Sesquiterpenoid analogs” (Purdue Research Foundation, priority 2018, dated 2023).
One block for each compound: values may come before it.

Tests used:
[1] = tested on: production of nitric oxide; conditions: reported; cited from earlier work
[2] = tested on: HeLa cells; assay: Visualization of DNA double strand breaks by γH2AX staining (confocal microscopy); type: cell-based
Description: HeLa cells were seeded (250′000 cells/mL) in a 6-well plate and reverse transfected with scrambled siRNA or POLE3 siRNA using RNAiMAX for two days. Cells were trypsinizned, seeded (150′000 cells/mL) in a 24-well plate containing a coverslip and left overnight to attach and grow. […] Cells were washed one time with PBS and fixed with methanol at −20° C. for 10 min. Cells were washed again two times with PBS and coverslip was transferred to a wet box.
Blocking was performed with a 5% bovine serum albumin (BSA) solution in PBS for 30 min. Cells were washed one time with PBS 0.1% BSA and rabbit antibody directed against H2AX pSer^139 (Sigma Aldrich H5912, 1/250 in PBS 0.1% BSA) was added and incubated for one hour at r.t. Cells were washed three times with PBS 0.1% BSA and incubated for one hour with anti-rabbit IgG Alexa Fluor 488 (Jackson, 1/200 in PBS 0.1% BSA). Cells were washed three times with PBS 0.1% BSA, one time with PBS, one time with water and then mounted on a slide with ProLong Gold antifade mountant with DAPI (Life Technologies). Cells were visualized with an LSM 700 confocal microscope (Zeiss).
Induced DNA damage was measured by confocal microscopy using γH2AX staining as marker.

[3] = biological target: T1, POLE3 (Homo sapiens, UniProt Q9NRF9); assay: Global proteomics profiling versus POLE3 knockdown; type: cell-based; conditions: HeLa cells
T1 construct: endogenous in cells; host or cells: HeLa
T1 sequence (Q9NRF9 1-147): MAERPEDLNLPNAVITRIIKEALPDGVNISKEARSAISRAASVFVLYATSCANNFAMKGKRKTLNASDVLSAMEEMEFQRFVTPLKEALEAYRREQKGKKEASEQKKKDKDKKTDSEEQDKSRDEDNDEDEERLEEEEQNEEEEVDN
Text: To understand whether binding of Example 2 to C51 of POLE3 is productive and leads to the loss of function of this protein, POLE3 was knocked down in HeLa cells using siRNA and compared by global proteomics the protein expression profile in these cells versus cells treated with compound Example 2 or DMSO as control. […] Possibly as a compensatory effect, we also observed fourfold upregulation of POLE, another subunit of DNA polymerase ε.
Knockdown of POLE3 was achieved using RNAiMAx (Invitrogen) and POLE3 siRNA (Dharmacon) via reverse transfection according to the manual of the manufacturer. Briefly, 9 μL of 20 μM siRNA was mixed with 9 μL of RNAiMax reagent in 500 μL OptiMEM and incubated for 20 min. at r.t. […] Samples were analyzed by LC-MS/MS (see below) and the MS data was processed with MaxQuant (see below).
Peptides were resuspended in water with 0.1% formic acid (FA) and analyzed using EASY-nLC 1200 nano-UHPLC coupled to Q Exactive HF-X Quadrupole-Orbitrap mass spectrometer (Thermo Scientific). […]
The MS data was analyzed with MaxQuant (V1.6.1.0) and searched against the human proteome (Uniprot) and a common list of contaminants (included in MaxQuant). […] The minimum peptide length was set to 6 amino acids and peptide re-quantification, label-free quantification (MaxLFQ) and “match between runs” were enabled. […]

[4] = biological target: T2, SHP2 (Homo sapiens, UniProt Q06124); assay: PTP inhibition study with pNPP as substrate; type: biochemical; conditions: pH 7, 25° C.; for IC50: 15 min
T2 sequence (Q06124 1-593): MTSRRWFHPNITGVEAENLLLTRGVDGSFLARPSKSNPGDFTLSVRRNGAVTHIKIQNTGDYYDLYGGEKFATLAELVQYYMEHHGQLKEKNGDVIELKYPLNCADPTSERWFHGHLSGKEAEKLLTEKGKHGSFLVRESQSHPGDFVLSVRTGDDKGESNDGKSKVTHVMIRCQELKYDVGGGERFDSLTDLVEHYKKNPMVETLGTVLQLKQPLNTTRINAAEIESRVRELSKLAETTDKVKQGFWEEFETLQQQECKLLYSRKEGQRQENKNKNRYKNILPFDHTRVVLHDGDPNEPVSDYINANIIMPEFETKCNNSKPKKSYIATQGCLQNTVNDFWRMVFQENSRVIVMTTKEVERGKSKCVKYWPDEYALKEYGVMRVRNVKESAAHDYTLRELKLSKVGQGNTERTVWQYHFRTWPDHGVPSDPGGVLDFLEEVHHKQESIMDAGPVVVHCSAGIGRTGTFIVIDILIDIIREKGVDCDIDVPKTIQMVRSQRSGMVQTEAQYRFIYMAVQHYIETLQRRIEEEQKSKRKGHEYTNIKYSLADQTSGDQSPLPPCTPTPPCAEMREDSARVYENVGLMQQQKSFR
Description: PTP Inhibition Study. Abies sesquiterpenoids and their analogs were evaluated for their ability to inhibit the reaction catalyzed by PTP1B and SHP2 using p-nitrophenyl phosphatae (pNPP) as a substrate at pH 7 and 25° C. […] The reaction was quenched after 3 (PTP1B) or 15 (SHP2) min by the addition of 25 μl of 5N NaOH. The absorbance at 405 nm was detected by a Spectra MAX 384 PLUS microplate spectrophotometer (Molecular Devices). IC50 values were calculated by fitting the absorbance at 405 nm versus inhibitor concentration to the following equation: A1/A0=IC50/(IC50+[I]) wherein A1 is the absorbance at 405 nm of the sample in the presence of inhibitor; A0 is the absorbance at 405 nm in the absence of inhibitor; and [I] is the concentration of the inhibitor.

[5] = biological target: T3, POLE3-GFP (Homo sapiens, UniProt Q9NRF9); assay: Gel-based determination of kinetic parameters Ki and kinact (Kitz and Wilson method); type: binding; conditions: lysate of 293T cells overexpressing WT POLE3-GFP, 37° C., competition with 30 μM Example 4
T3 construct: expressed in transfected cells; host or cells: 293T
T3 sequence (Q9NRF9 1-147): T1 sequence (Q9NRF9 1-147)
Description: 293T cells in a 3.5 cm Petri dish were transfected with POLE3-WT-GFP-pEXP or […] using PEI-MAX. After 24 hours, lysates were prepared as described above. Proteins (1 mg/mL, 25 μL) were incubated with indicated compounds at indicated concentrations (25× stock in DMSO) for three hours at 37° C. Subsequently, 30 μM Example 4 (25× stock in DMSO) was added for one hour at r.t. Click chemistry, reducing SDS-PAGE and visualization were performed as described above. Proteins were transferred to a PVDF membrane using a Trans-Blot Turbo transfer system (Bio-Rad). Membrane was blocked with 3% BSA in Tris-Buffered Saline with 0.1% Tween 20 (TBST) for one hour at r.t. Mouse monoclonal antibody against GFP (Roche, 1/1000 in 3% BSA in TBST) was added and incubated overnight at 4° C. Membrane was washed three times for five min. with TBST and incubated with anti-mouse Alexa Fluor 647 (Jackson ImmunoResearch Inc., 1/500 in 3% BSA in TBST) for one hour at r.t. Membrane was washed four times for five min. with TBST and visualized with an Azure Biosystems Sapphire Biomolecular Imager.
WT POLES-GFP was overexpressed in 293T cells as described above and lysate was treated with indicated concentrations of Example 2 (1 μL of 25× stock in DMSO) for 1.5, 2, 2.5, 3, 3.5 or 4 hours at 37° C. […] Images were quantified using ImageJ and the kinetic parameters were determined using GraphPad Prism (V7.02).).

[6] = tested on: MDA-MB-231 lysate; assay: Gel-based in vitro JW-RF-001 competition of labeling with Example 4; type: binding; conditions: 30 μM Example 4, MDA-MB-231 lysate, one hour at r.t.
Description: MDA-MB-231 lysate (2 mg/mL, 25 μL) was treated with indicated concentrations of azide probes (Example 4) (1 μL of 25× stock in DMSO) for one hour at r.t. Click chemistry was initiated by the addition of TAMRA alkyne (Sigma-Aldrich, 30 μM, 25× stock in DMSO), tris(2-carboxyethyl)phosphine hydrochloride (TCEP, Alfa Aesar, 1 mM, fresh 50× stock in water), tris[(1-benzyl-1H-1,2,3-triazol-4-yl)methyl]amine (TBTA, Sigma-Aldrich, 100 μM, 16× stock in DMSO:tBuOH 1:4), and copper(II) sulfate (1 mM, 50× stock in water) to the lysate and incubated in the dark for one hour at r.t. SDS-PAGE reducing loading buffer (4×) was added and proteins were separated using a 10% SDS-PAGE gel. Gels were visualized using an Azure Biosystems Sapphire Biomolecular Imager, then stained using Coomassie. Images were quantified with ImageJ (V1.51).
MDA-MB-231 lysate (2 mg/mL, 25 μL) was treated with either 3 mM JW-RF-001 (1 μL of 25× stock in DMSO) or DMSO for one hour at r.t. Subsequently, lysate was incubated with 30 μM Example 4 (1 μL, of 25× stock in DMSO) for one hour at r.t. Click chemistry, reducing SDS-PAGE and visualization were performed as described above.

[7] = biological target: T4, PTP1B (Homo sapiens, UniProt P18031); conditions: reported by Hu et al., Eur. J. Org. Chem. 2016; cited from earlier work
T4 sequence (P18031 1-435): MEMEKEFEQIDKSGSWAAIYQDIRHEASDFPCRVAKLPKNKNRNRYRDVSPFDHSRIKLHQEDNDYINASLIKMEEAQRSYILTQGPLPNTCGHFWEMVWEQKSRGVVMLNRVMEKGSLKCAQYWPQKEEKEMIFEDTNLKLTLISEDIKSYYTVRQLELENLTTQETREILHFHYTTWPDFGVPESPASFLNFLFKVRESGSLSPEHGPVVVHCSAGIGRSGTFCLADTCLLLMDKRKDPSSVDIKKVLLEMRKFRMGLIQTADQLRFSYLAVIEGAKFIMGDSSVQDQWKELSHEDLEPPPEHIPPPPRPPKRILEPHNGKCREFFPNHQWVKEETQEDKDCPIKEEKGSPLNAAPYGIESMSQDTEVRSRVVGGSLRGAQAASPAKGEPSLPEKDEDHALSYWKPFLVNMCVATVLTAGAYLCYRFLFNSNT

functional effect of binding on POLE3 (overlap of protein expression profile with POLE3 KD cells) ([3]; 30 μM, 6 h treatment): leads to the loss of function of POLE3
upregulation of POLE ([3]; POLE3 KD and Example 2-treated (30 μM, 6 h)): fourfold
preference for SHP2 over PTP1B [4]: 10 fold
IC50 [4]: 44.9 ± 9.6 µM
kinact [5]: 0.0045 s⁻¹
Ki ([5]; read-out: POLE3-GFP binding constant Ki): 56.9 µM
Structure (SMILES): C=C1C[C@@]2(C[C@H](C)[C@H]3CC=C(C)C(=O)[C@@H]3O2)OC1=O [Example 2, (2R,4S,4aR,8aR)-4,7-dimethyl-4′-methylene-3,3′,4,4a,4′,8a-hexahydro-5′H-spiro[chromene-2,2′-furan]-5′,8(5H)-dione]
γH2AX signal, combination with etoposide versus etoposide only-treated cells ([2]; 30 μM etoposide combined with 30 μM Example 2, 6 hours): significantly stronger γH2AX signal
γH2AX signal intensity, compound alone ([2]; 30 μM, 6 hours): did not lead to an increase

preference for SHP2 over PTP1B [4]: 10 fold
IC50 [4]: 33.3 ± 0.9 µM
Structure (SMILES): C=C1C[C@@]2(C[C@H](C)[C@H]3CC=C(CO)C(=O)[C@@H]3O2)OC1=O [Example 3, (2R,4S,4aR,8aR)-7-(hydroxymethyl)-4-methyl-4′-methylene-3,3′,4,4a,4′,8a-hexahydro-5′H-spiro[chromene-2,2′-furan]-5′,8(5H)-dione]

preference for SHP2 over PTP1B [4]: 10 fold
IC50 [4]: 3.3 ± 0.1 µM
Structure (SMILES): C=C1CC2(CC(C)C3CC=C(CO)C(O)C3O2)OC1=O (stereo not shown) [Example 3′]

binding of the azide probe in lysate [6]: binded to cysteines
Structure (SMILES): C=C1C[C@@]2(C[C@H](C)[C@H]3CC=C(CN=[N+]=[N-])C(=O)[C@@H]3O2)OC1=O [Example 4, (2R,4S,4aR,8aR)-7-(azidomethyl)-4-methyl-4′-methylene-3,3′,4,4a,4′,8a-hexahydro-5′H-spiro[chromene-2,2′-furan]-5′,8(5H)-dione]

Second part, the compound before the results:

Structure (SMILES): CC1=C[C@@]2(C[C@H](C)[C@H]3CC=C(C)[C@@H](O[C@@H]4O[C@H](CO)[C@@H](O)[C@H](O)[C@H]4O)[C@@H]3O2)OC1=O [Abiespiroside A, abiespiroside A]
inhibitory activity against the production of nitric oxide [1]: potent inhibitory activity

Structure (SMILES): CC1=C[C@@]2(C[C@H](C)[C@H]3CC=C(CO)C(=O)[C@@H]3O2)OC1=O [beshanzuenone C]
IC50 [7]: 59.7 µM

Structure (SMILES): CC1=C[C@@]2(C[C@H](C)[C@H]3CC=C(C)C(=O)[C@@H]3O2)OC1=O [beshanzuenone D]
IC50 [7]: 40.4 µM
